In US20240287138A1, “CYCLIC PEPTIDES FOR INHIBITING TNF RECEPTOR 1 ACTIVITY” (Merck Sharp & Dohme LLC, priority 2023, published 2024):
Where two headings read alike, the source gives them in different places. Numbered stars: 1 amine (or outer) side, 2 acyl side, 3 side chain; on linkers, the order of the positions; unused ones are H or OH. Bridge positions count the residues as written; N and C are the ends. Square brackets hold non-standard residues; d marks the D form. Peptide text beside a SMILES is read from it. Trp(βS-Me,7-OMe) = COc1cccc2c([C@H](C)[C@H](N)C(=O)O)c[nH]c12; Phe(4-SO2NH2) = N[C@@H](Cc1ccc(S(N)(=O)=O)cc1)C(=O)O; Phe(2-F,4-COOH) = N[C@@H](Cc1ccc(C(=O)O)cc1F)C(=O)O; Trp(7-CN) = N#Cc1cccc2c(C[C@H](N)C(=O)O)c[nH]c12; Trp(7-Cl) = N[C@@H](Cc1c[nH]c2c(Cl)cccc12)C(=O)O; Ala(pyrimidin-5-yl) = N[C@@H](Cc1cncnc1)C(=O)O; Phe(3-CONH2) = NC(=O)c1cccc(C[C@H](N)C(=O)O)c1; Phe(4-CONH2) = NC(=O)c1ccc(C[C@H](N)C(=O)O)cc1; Phe(4-COOH) = N[C@@H](Cc1ccc(C(=O)O)cc1)C(=O)O; 4Pal(3S-Me) = C[C@@H](c1ccncc1)[C@H](N)C(=O)O; Trp(7-aza) = N[C@@H](Cc1c[nH]c2ncccc12)C(=O)O; Phe(4-CH2NH2) = NCc1ccc(C[C@H](N)C(=O)O)cc1; Pip(5R-OH) = O=C(O)[C@@H]1CC[C@@H](O)CN1; αMeW = C[C@](N)(Cc1c[nH]c2ccccc12)C(=O)O; X1 = O=C([C@@H]1CC[C@H](N[*:1])C1)[*:2]; Met(O2) = CS(=O)(=O)CC[C@H](N)C(=O)O; 4Pal = N[C@@H](Cc1ccncc1)C(=O)O; Gly(cBu) = N[C@H](C(=O)O)C1CCC1; NMeE = CN[C@@H](CCC(=O)O)C(=O)O; dHyp = O=C(O)[C@H]1C[C@H](O)CN1; Cit = NC(=O)NCCC[C@H](N)C(=O)O; Ahp(2) = CCCCC[C@H](N)C(=O)O; hSer = N[C@@H](CCO)C(=O)O; αMeS = C[C@](N)(CO)C(=O)O; Nle = CCCC[C@H](N)C(=O)O; Sar = CNCC(=O)O

What was measured:
human TNFR2 ECD protein = target: T1, human TNFR2 ECD protein (Homo sapiens, UniProt P20333); experiment: SPR off-target binding (selectivity) to human TNFR2 ECD
T1 construct: HRV 3C protease cleavage site (C); 6His (C, cleaved yes); made in house; host or cells: Sf21 insect cells (baculovirus), secreted
T1 sequence (P20333 23-257): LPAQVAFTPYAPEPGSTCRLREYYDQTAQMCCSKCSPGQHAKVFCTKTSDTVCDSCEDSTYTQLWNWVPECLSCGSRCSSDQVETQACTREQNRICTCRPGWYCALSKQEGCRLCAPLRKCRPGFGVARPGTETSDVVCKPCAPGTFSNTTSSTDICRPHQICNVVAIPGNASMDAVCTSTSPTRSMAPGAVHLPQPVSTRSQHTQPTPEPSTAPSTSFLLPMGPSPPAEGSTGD
Summary of the method: (§1)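 Biotinylated avi-tagged human TNFR1 or TNFR2 ECD, expressed in Sf21 insect cells, captured on streptavidin SPR chip; peptide analytes run in 10 mM HEPES pH 7.4, 150 mM NaCl, 3 mM EDTA, 0.05% P20, 2% DMSO. kon and koff measured, affinity KA calculated.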

[1] = target: T2, TNFα-induced NF-κB signal transduction pathway (TNFR1 signaling) in THP-1 cells (Homo sapiens, UniProt P19438); experiment: THP-1 Lucia NF-κB reporter cell assay, inhibition of TNFα-induced NF-κB signaling; format: cell-based; settings: THP-1 NF-κB Lucia reporter cells, 10 ng/mL TNFα, 16-18 h, secreted luciferase; read-out: THP-1 IC50
T2 sequence (P19438 30-455): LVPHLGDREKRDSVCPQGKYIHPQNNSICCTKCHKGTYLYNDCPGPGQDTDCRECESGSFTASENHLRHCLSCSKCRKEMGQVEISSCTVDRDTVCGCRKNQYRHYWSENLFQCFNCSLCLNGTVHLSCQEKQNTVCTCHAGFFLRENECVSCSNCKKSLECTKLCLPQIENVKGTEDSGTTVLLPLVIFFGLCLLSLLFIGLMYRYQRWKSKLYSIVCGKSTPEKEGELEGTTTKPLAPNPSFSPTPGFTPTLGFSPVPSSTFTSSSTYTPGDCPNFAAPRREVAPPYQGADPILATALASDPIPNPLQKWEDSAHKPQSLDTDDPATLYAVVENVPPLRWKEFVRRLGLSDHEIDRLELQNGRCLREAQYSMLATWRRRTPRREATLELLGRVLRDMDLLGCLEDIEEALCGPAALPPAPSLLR
Summary of the method: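 THP-1 Lucia NF-κB cells, 20k/well, no selection antibiotics; peptide pre-inc 1 h 37 °C; + recombinant human TNFα 10 ng/mL final; o.n.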

[2] = target: T3, human TNFR1 extracellular domain (ECD) protein (Homo sapiens, UniProt P19438); experiment: SPR binding affinity to captured human TNFR1 ECD
T3 construct: HRV 3C protease cleavage site (C); 6His (C, cleaved yes); made in house; host or cells: Sf21 insect cells (baculovirus), secreted
T3 sequence (P19438 30-211): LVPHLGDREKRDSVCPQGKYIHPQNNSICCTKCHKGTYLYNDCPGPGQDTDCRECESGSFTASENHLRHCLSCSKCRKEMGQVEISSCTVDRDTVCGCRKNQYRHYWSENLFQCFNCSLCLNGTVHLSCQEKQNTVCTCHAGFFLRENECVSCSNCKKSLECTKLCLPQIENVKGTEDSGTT
Summary of the method: as §1

[3] = biotinylated human TNFR2 ECD on streptavidin chip, read-out: SPR hTNFR2 KD
[4] = biotinylated human TNFR1 ECD on streptavidin chip, from kon and koff, read-out: SPR hTNFR1 KD

CCCC[C@@H]1NC(=O)[C@@H]2CC[C@@H](C2)NC(=O)[C@H]([C@@H](C)c2c[nH]c3c(OC)cccc23)NC(=O)CN(C)C(=O)[C@H](Cc2ccc(CN)cc2)NC(=O)[C@H](Cc2ccc(C(N)=O)cc2)NC(=O)[C@](C)(CO)NC(=O)[C@H](Cc2c[nH]c3c(C#N)cccc23)NC(=O)[C@H](Cc2ccc(C(=O)O)cc2)NC(=O)[C@H](CC(N)=O)NC(=O)[C@H]2C[C@H](O)CN2C(=O)[C@H](Cc2c[nH]c3ccccc23)NC(=O)[C@@H]2CC[C@@H](O)CN2C(=O)[C@H](Cc2ccncc2)NC1=O [SEQ ID NO. 48] (cyclo([4Pal][Pip(5R-OH)]W[dHyp]N[Phe(4-COOH)][Trp(7-CN)][αMeS][Phe(4-CONH2)][Phe(4-CH2NH2)][Sar][Trp(βS-Me,7-OMe)][X1][Nle]))
Kd (human TNFR2 ECD protein; [3]): > 1000 nM
IC50 [1]: 0.7 nM
Kd [2, 4]: 0.03 nM

CCCCC[C@@H]1NC(=O)[C@@H]2CC[C@@H](C2)NC(=O)[C@H]([C@@H](C)c2c[nH]c3c(OC)cccc23)NC(=O)CN(C)C(=O)[C@H](Cc2ccc(C(N)=O)cc2)NC(=O)[C@H](Cc2ccc(C(N)=O)cc2)NC(=O)[C@](C)(CO)NC(=O)[C@H](Cc2c[nH]c3c(C#N)cccc23)NC(=O)[C@H](Cc2ccc(C(=O)O)cc2)NC(=O)[C@H](CC(N)=O)NC(=O)[C@H]2C[C@H](O)CN2C(=O)[C@H](Cc2c[nH]c3ccccc23)NC(=O)[C@H](CCS(C)(=O)=O)NC(=O)[C@H]([C@@H](C)c2ccncc2)NC1=O [SEQ ID NO. 49] (cyclo([Ahp(2)][4Pal(3S-Me)][Met(O2)]W[dHyp]N[Phe(4-COOH)][Trp(7-CN)][αMeS][Phe(4-CONH2)][Phe(4-CONH2)][Sar][Trp(βS-Me,7-OMe)][X1]))
Kd (human TNFR2 ECD protein): > 1000 nM
IC50 [1]: 0.7 nM
Kd [2]: 0.08 nM

CCCCC[C@@H]1NC(=O)[C@@H]2CC[C@@H](C2)NC(=O)[C@H]([C@@H](C)c2c[nH]c3c(OC)cccc23)NC(=O)CN(C)C(=O)[C@H](Cc2ccc(C(N)=O)cc2)NC(=O)[C@H](Cc2ccc(C(N)=O)cc2)NC(=O)[C@](C)(CO)NC(=O)[C@H](Cc2c[nH]c3c(C#N)cccc23)NC(=O)[C@H](Cc2ccc(C(=O)O)cc2)NC(=O)[C@H](CC(N)=O)NC(=O)[C@H]2C[C@H](O)CN2C(=O)[C@H](Cc2c[nH]c3ccccc23)NC(=O)[C@H](CCO)NC(=O)[C@H]([C@@H](C)c2ccncc2)NC1=O [SEQ ID NO. 50] (cyclo([Ahp(2)][4Pal(3S-Me)][hSer]W[dHyp]N[Phe(4-COOH)][Trp(7-CN)][αMeS][Phe(4-CONH2)][Phe(4-CONH2)][Sar][Trp(βS-Me,7-OMe)][X1]))
Kd (human TNFR2 ECD protein): > 1000 nM
IC50 [1]: 0.9 nM
Kd [2]: 0.04 nM

CCCC[C@@H]1NC(=O)[C@@H]2CC[C@@H](C2)NC(=O)[C@H]([C@@H](C)c2c[nH]c3c(OC)cccc23)NC(=O)CN(C)C(=O)[C@H](Cc2ccc(C(=O)O)cc2F)NC(=O)[C@H](Cc2ccc(S(N)(=O)=O)cc2)NC(=O)[C@](C)(CO)NC(=O)[C@H](Cc2c[nH]c3c(C#N)cccc23)NC(=O)[C@H](Cc2ccc(C(=O)O)cc2F)NC(=O)[C@H](CC(N)=O)NC(=O)[C@H]2C[C@H](O)CN2C(=O)[C@H](Cc2c[nH]c3ncccc23)NC(=O)[C@@H]2CC[C@@H](O)CN2C(=O)[C@H](Cc2cncnc2)NC1=O [SEQ ID NO. 51] (cyclo(N[Phe(2-F,4-COOH)][Trp(7-CN)][αMeS][Phe(4-SO2NH2)][Phe(2-F,4-COOH)][Sar][Trp(βS-Me,7-OMe)][X1][Nle][Ala(pyrimidin-5-yl)][Pip(5R-OH)][Trp(7-aza)][dHyp]))
Kd (human TNFR2 ECD protein; [3]): > 1000 nM
IC50 [1]: 0.4 nM
Kd [2, 4]: 0.08 nM

CCCC[C@@H]1NC(=O)[C@@H]2CC[C@@H](C2)NC(=O)[C@H]([C@@H](C)c2c[nH]c3c(OC)cccc23)NC(=O)CN(C)C(=O)[C@H](Cc2ccc(C(=O)O)cc2)NC(=O)[C@H](Cc2ccc(C(N)=O)cc2)NC(=O)[C@](C)(CO)NC(=O)[C@H](Cc2c[nH]c3c(Cl)cccc23)NC(=O)[C@H](Cc2ccncc2)NC(=O)[C@H](CC(N)=O)NC(=O)[C@H]2C[C@H](O)CN2C(=O)[C@H](Cc2c[nH]c3ccccc23)NC(=O)[C@@H]2CC[C@@H](O)CN2C(=O)[C@H](Cc2ccncc2)NC1=O [SEQ ID NO. 53] (cyclo([4Pal][Trp(7-Cl)][αMeS][Phe(4-CONH2)][Phe(4-COOH)][Sar][Trp(βS-Me,7-OMe)][X1][Nle][4Pal][Pip(5R-OH)]W[dHyp]N))
Kd (human TNFR2 ECD protein; [3]): > 1000 nM
IC50 [1]: 0.6 nM
Kd [2, 4]: 0.02 nM

COc1cccc2c([C@H](C)[C@@H]3NC(=O)CN(C)C(=O)[C@H](Cc4cccc(C(N)=O)c4)NC(=O)[C@H](Cc4ccc(C(=O)O)cc4)NC(=O)[C@](C)(CO)NC(=O)[C@H](Cc4c[nH]c5c(Cl)cccc45)NC(=O)[C@H](Cc4ccncc4)NC(=O)[C@H](CC(N)=O)NC(=O)[C@H]4C[C@H](O)CN4C(=O)[C@H](Cc4c[nH]c5ccccc45)NC(=O)[C@@H]4CC[C@@H](O)CN4C(=O)[C@H](Cc4ccncc4)NC(=O)[C@H](CCCNC(N)=O)NC(=O)[C@@H]4CC[C@@H](C4)NC3=O)c[nH]c12 [SEQ ID NO. 54] (cyclo([4Pal][Trp(7-Cl)][αMeS][Phe(4-COOH)][Phe(3-CONH2)][Sar][Trp(βS-Me,7-OMe)][X1][Cit][4Pal][Pip(5R-OH)]W[dHyp]N))
Kd (human TNFR2 ECD protein): > 1000 nM
IC50 [1]: 1.8 nM
Kd [2]: 0.07 nM

CCCC[C@@H]1NC(=O)CSC[C@@H](C(N)=O)NC(=O)[C@](C)(Cc2c[nH]c3ccccc23)NC(=O)CN(C)C(=O)[C@H](Cc2ccc(O)cc2)NC(=O)[C@H](Cc2ccc(C(=O)O)cc2)NC(=O)[C@](C)(CO)NC(=O)[C@H](Cc2c[nH]c3c(Cl)cccc23)NC(=O)[C@H](Cc2ccncc2)NC(=O)[C@H](CC(N)=O)NC(=O)[C@H](CCC(=O)O)N(C)C(=O)[C@H](Cc2c[nH]c3ncccc23)NC(=O)[C@H](C2CCC2)NC(=O)[C@H](Cc2ccncc2)NC1=O [SEQ ID NO. 56] ({CH2CO}-[Nle][4Pal][Gly(cBu)][Trp(7-aza)][NMeE]N[4Pal][Trp(7-Cl)][αMeS][Phe(4-COOH)]Y[Sar][αMeW]C-NH2; thioether N-14)
Kd (human TNFR2 ECD protein): > 1000 nM
IC50 [1]: 11 nM
Kd [2]: 27.2 nM

CCCCC[C@@H]1NC(=O)[C@@H]2CC[C@@H](C2)NC(=O)[C@H]([C@@H](C)c2c[nH]c3c(OC)cccc23)NC(=O)CN(C)C(=O)[C@H](Cc2ccc(C(N)=O)cc2)NC(=O)[C@H](Cc2ccc(C(N)=O)cc2)NC(=O)[C@](C)(CO)NC(=O)[C@H](Cc2c[nH]c3c(C#N)cccc23)NC(=O)[C@H](Cc2ccc(C(=O)O)cc2)NC(=O)[C@H](CC(N)=O)NC(=O)[C@H]2C[C@H](O)CN2C(=O)[C@H](Cc2c[nH]c3ccccc23)NC(=O)[C@H](CCC(N)=O)NC(=O)[C@H]([C@@H](C)c2ccncc2)NC1=O [SEQ ID NO. 70] (cyclo([Ahp(2)][4Pal(3S-Me)]QW[dHyp]N[Phe(4-COOH)][Trp(7-CN)][αMeS][Phe(4-CONH2)][Phe(4-CONH2)][Sar][Trp(βS-Me,7-OMe)][X1]))
Kd (human TNFR2 ECD protein): > 1000 nM
IC50 [1]: 0.9 nM
Kd [2]: 0.07 nM
